Experimental data published in ChEMBL document CHEMBL3580578, “Optimization of 5-(2,6-dichlorophenyl)-3-hydroxy-2-mercaptocyclohex-2-enones as potent inhibitors of human lactate dehydrogenase” (Bioorg Med Chem Lett, 2014).
≈ marks a conversion by molar mass, not a printed value.

Legend:
[1] = target: T1, Malate dehydrogenase, cytoplasmic (Homo sapiens, UniProt P40925); test: Inhibition of malate dehydrogenase 1 (unknown origin)
T1 sequence (P40925 whole entry): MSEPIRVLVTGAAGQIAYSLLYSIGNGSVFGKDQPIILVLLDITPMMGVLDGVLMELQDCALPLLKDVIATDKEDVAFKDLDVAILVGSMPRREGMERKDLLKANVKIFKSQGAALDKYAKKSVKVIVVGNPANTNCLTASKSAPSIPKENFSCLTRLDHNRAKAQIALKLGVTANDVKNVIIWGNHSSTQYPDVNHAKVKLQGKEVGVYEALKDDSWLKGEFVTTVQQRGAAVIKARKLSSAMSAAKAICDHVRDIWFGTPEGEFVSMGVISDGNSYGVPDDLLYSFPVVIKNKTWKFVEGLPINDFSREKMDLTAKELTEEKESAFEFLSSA

[2] = target: T2, Malate dehydrogenase, mitochondrial (Homo sapiens, UniProt P40926); test: Inhibition of malate dehydrogenase 2 (unknown origin)
T2 sequence (P40926 whole entry): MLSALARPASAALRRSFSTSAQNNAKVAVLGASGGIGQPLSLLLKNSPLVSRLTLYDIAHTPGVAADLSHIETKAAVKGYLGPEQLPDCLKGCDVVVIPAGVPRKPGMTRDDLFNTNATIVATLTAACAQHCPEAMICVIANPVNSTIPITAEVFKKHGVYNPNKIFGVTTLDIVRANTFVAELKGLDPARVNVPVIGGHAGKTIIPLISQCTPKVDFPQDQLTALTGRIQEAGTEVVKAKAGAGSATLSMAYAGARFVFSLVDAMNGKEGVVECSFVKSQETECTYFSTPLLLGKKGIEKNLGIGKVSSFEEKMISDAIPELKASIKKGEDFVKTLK

[3] = target: L-lactate dehydrogenase A chain (Homo sapiens, UniProt P00338); test: Inhibition of human LDH-A by biochemical assay
[4] = Apparent permeability from apical to basolateral side in MDCK cells; type: ADME, cell-based, Canis lupus familiaris; conditions: dog
[5] = Kinetic solubility of the compound in PBS buffer at pH 7.4
[6] = Stability in mouse plasma assessed as parent compound remaining at 37 degC after 1 hr; type: ADME, cell-free; conditions: read-out: Stability
[7] = Plasma protein binding in human; type: ADME, cell-free; conditions: read-out: PPB
[8] = target: L-lactate dehydrogenase B chain (Homo sapiens, UniProt P07195)
L-lactate dehydrogenase B chain, sequence (P07195 whole entry): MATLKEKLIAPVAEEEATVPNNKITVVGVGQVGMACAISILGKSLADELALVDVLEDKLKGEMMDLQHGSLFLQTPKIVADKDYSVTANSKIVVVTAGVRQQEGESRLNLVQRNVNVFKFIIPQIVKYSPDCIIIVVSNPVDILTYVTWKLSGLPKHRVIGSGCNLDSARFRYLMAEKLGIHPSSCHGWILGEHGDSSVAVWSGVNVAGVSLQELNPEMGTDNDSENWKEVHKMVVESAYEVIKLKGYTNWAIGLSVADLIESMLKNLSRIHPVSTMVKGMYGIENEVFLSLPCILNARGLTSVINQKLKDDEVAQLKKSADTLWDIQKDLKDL
Description: Inhibition of LDH-B (unknown origin)

SMILES	IC50 [1]	IC50 [2]	IC50 [3]	Papp A→B [4]	solubility kinetic [5]	remaining at 1 h [6]	fraction unbound [7]	IC50 [8]
O=C1CC(c2c(Cl)cccc2Cl)CC(O)=C1Sc1ccccc1Cl (configuration not stated)	≥ 10 µM	≥ 10 µM	–	–	–	–	–	–
O=C1CC(c2c(Cl)ccc(N3CCOCC3)c2Cl)CC(O)=C1Sc1ccccc1Cl (configuration not stated)	≥ 10 µM	≥ 10 µM	0.24 µM	–	–	–	–	–
O=C1CC(c2c(Cl)cc(N3CCOCC3)cc2Cl)CC(O)=C1Sc1ccccc1Cl (configuration not stated)	≥ 10 µM	≥ 10 µM	2.6 µM	–	–	–	–	–
O=C1CC(c2c(Cl)ccc(N3CCN(C4CC4)CC3)c2Cl)CC(O)=C1Sc1ccccc1Cl (configuration not stated)	≥ 10 µM	≥ 10 µM	0.23 µM	–	–	–	–	–
O=C1CC(c2c(Cl)ccc(N3CCN(C4COC4)CC3)c2Cl)CC(O)=C1Sc1ccccc1Cl (configuration not stated)	≥ 10 µM	≥ 10 µM	0.37 µM	–	–	–	–	–
CC(=O)N1CCN(c2ccc(Cl)c(C3CC(=O)C(Sc4ccccc4Cl)=C(O)C3)c2Cl)CC1 (configuration not stated)	≥ 10 µM	≥ 10 µM	0.1 µM	–	–	–	–	–
O=C1CC(c2c(Cl)ccc(N3CCNCC3)c2Cl)CC(O)=C1Sc1ccccc1Cl (configuration not stated)	≥ 10 µM	≥ 10 µM	0.17 µM	–	–	–	–	–
O=C1CC(c2c(Cl)ccc(NC3CCOCC3)c2Cl)CC(O)=C1Sc1ccccc1Cl (configuration not stated)	≥ 10 µM	≥ 10 µM	0.06 µM	–	–	–	–	–
CC(C)Oc1ccc(Cl)c(C2CC(=O)C(Sc3ccccc3Cl)=C(O)C2)c1Cl (configuration not stated)	≥ 10 µM	≥ 10 µM	0.09 µM	–	–	–	–	–
O=C1CC(c2c(Cl)ccc(-c3ccccc3)c2Cl)CC(O)=C1Sc1ccccc1Cl (configuration not stated)	≥ 10 µM	≥ 10 µM	0.1 µM	–	–	–	–	–
O=C1CC(c2c(Cl)ccc(-c3ccccc3Cl)c2Cl)CC(O)=C1Sc1ccccc1Cl (configuration not stated)	≥ 10 µM	≥ 10 µM	0.06 µM	–	–	–	–	–
O=C1CC(c2c(Cl)ccc(-c3cccnc3)c2Cl)CC(O)=C1Sc1ccccc1Cl (configuration not stated)	≥ 10 µM	≥ 10 µM	0.108 µM	–	–	–	–	–
O=C1CC(c2c(Cl)ccc(-c3ccncc3)c2Cl)CC(O)=C1Sc1ccccc1Cl (configuration not stated)	≥ 10 µM	≥ 10 µM	0.085 µM	–	–	–	–	–
O=C1CC(c2c(Cl)ccc(-c3cncnc3)c2Cl)CC(O)=C1Sc1ccccc1Cl (configuration not stated)	≥ 10 µM	≥ 10 µM	1.1 µM	–	–	–	–	–
O=C1CC(c2c(Cl)cccc2Cl)CC(O)=C1Sc1cc(O)ccc1Cl (configuration not stated)	≥ 10 µM	≥ 10 µM	0.12 µM	–	–	–	–	–
COc1ccc(Cl)c(SC2=C(O)CC(c3c(Cl)cccc3Cl)CC2=O)c1 (configuration not stated)	≥ 10 µM	≥ 10 µM	0.37 µM	–	–	–	–	–
Nc1ccc(Cl)c(SC2=C(O)CC(c3c(Cl)cccc3Cl)CC2=O)c1 (configuration not stated)	≥ 10 µM	≥ 10 µM	0.64 µM	–	–	–	–	–

SMILES	IC50 [1]	IC50 [2]	IC50 [3]	Papp A→B [4]	solubility kinetic [5]	remaining at 1 h [6]	fraction unbound [7]	IC50 [8]
CNc1ccc(Cl)c(SC2=C(O)CC(c3c(Cl)cccc3Cl)CC2=O)c1 (configuration not stated)	≥ 10 µM	≥ 10 µM	0.17 µM	–	–	–	–	–
O=C(O)Cc1ccc(Cl)c(SC2=C(O)CC(c3c(Cl)cccc3Cl)CC2=O)c1 (configuration not stated)	≥ 10 µM	≥ 10 µM	3.5 µM	–	–	–	–	–
CNC(=O)Cc1ccc(Cl)c(SC2=C(O)CC(c3c(Cl)cccc3Cl)CC2=O)c1 (configuration not stated)	≥ 10 µM	≥ 10 µM	1.8 µM	–	–	–	–	–
CN(C)C(=O)Cc1ccc(Cl)c(SC2=C(O)CC(c3c(Cl)cccc3Cl)CC2=O)c1 (configuration not stated)	≥ 10 µM	≥ 10 µM	10 µM	–	–	–	–	–
O=C(Cc1ccc(Cl)c(SC2=C(O)CC(c3c(Cl)cccc3Cl)CC2=O)c1)NCCO (configuration not stated)	≥ 10 µM	≥ 10 µM	0.3 µM	–	–	–	–	–
COC(=O)Cc1ccc(Cl)c(SC2=C(O)CC(c3c(Cl)cccc3Cl)CC2=O)c1 (configuration not stated)	≥ 10 µM	≥ 10 µM	0.04 µM	–	–	–	–	–
CCOC(=O)Cc1ccc(Cl)c(SC2=C(O)CC(c3c(Cl)cccc3Cl)CC2=O)c1 (configuration not stated)	≥ 10 µM	≥ 10 µM	0.13 µM	–	–	–	–	–
CC(C)OC(=O)Cc1ccc(Cl)c(SC2=C(O)CC(c3c(Cl)cccc3Cl)CC2=O)c1 (configuration not stated)	≥ 10 µM	≥ 10 µM	0.12 µM	–	–	–	–	–
C[C@@H](OC(=O)Cc1ccc(Cl)c(SC2=C(O)CC(c3c(Cl)cccc3Cl)CC2=O)c1)c1ccccc1 (some centres not stated)	≥ 10 µM	≥ 10 µM	0.006 µM	10.6 ×10⁻⁶ cm/s	61 µM (≈ 34.3 µg/mL)	72%	–	–
C[C@H](OC(=O)Cc1ccc(Cl)c(SC2=C(O)CC(c3c(Cl)cccc3Cl)CC2=O)c1)c1ccccc1 (some centres not stated)	≥ 10 µM	≥ 10 µM	0.09 µM	–	–	–	–	–
CC(C)Oc1ccc(Cl)c(C2CC(=O)C(Sc3cc(O)ccc3Cl)=C(O)C2)c1Cl (configuration not stated)	≥ 10 µM	≥ 10 µM	0.03 µM	–	–	–	–	–
COc1ccc(Cl)c(SC2=C(O)CC(c3c(Cl)ccc(OC(C)C)c3Cl)CC2=O)c1 (configuration not stated)	≥ 10 µM	≥ 10 µM	0.025 µM	–	–	–	–	–
CC(C)Oc1ccc(Cl)c(C2CC(=O)C(Sc3cc(O)ccc3C#N)=C(O)C2)c1Cl (configuration not stated)	≥ 10 µM	≥ 10 µM	0.015 µM	1.1 ×10⁻⁶ cm/s	50 µM (≈ 23.2 µg/mL)	–	< 0.001	0.14 µM
COc1ccc(C#N)c(SC2=C(O)CC(c3c(Cl)ccc(OC(C)C)c3Cl)CC2=O)c1 (configuration not stated)	≥ 10 µM	≥ 10 µM	0.46 µM	–	–	–	–	2.4 µM
COc1ccc(Cl)c(SC2=C(O)CC(c3c(Cl)ccc(-c4ccncc4)c3Cl)CC2=O)c1 (configuration not stated)	≥ 10 µM	≥ 10 µM	0.035 µM	–	–	–	–	–
CCOC(=O)Cc1ccc(Cl)c(SC2=C(O)CC(c3c(Cl)ccc(-c4ccccc4)c3Cl)CC2=O)c1 (configuration not stated)	≥ 10 µM	≥ 10 µM	0.03 µM	–	–	–	–	–
COc1ccc(Cl)c(SC2=C(O)CC(c3c(Cl)ccc(NC4CCOCC4)c3Cl)CC2=O)c1 (configuration not stated)	≥ 10 µM	≥ 10 µM	0.03 µM	14 ×10⁻⁶ cm/s	49 µM (≈ 25.9 µg/mL)	–	< 0.001	–
